Test results published in patent publication US20260242350A1, “POLYCYCLIC THYROID HORMONE BETA RECEPTOR AGONIST AND USE THEREOF” (CASCADE PHARMACEUTICALS, INC., priority 2023, published 2026).

Columns and labels:
[1] = target: T1, THRα LBD (His-GST-dLBT-THRα LBD) (Homo sapiens, UniProt P10827); test: THR-FRET (time-resolved fluorescence resonance energy transfer) agonist activity assay, THRα; type: biochemical; conditions: 24 h at room temperature
T1 construct: made in house; host or cells: E. coli BL21 (DE3)
T1 sequence (P10827 163-407 isoform P10827-2): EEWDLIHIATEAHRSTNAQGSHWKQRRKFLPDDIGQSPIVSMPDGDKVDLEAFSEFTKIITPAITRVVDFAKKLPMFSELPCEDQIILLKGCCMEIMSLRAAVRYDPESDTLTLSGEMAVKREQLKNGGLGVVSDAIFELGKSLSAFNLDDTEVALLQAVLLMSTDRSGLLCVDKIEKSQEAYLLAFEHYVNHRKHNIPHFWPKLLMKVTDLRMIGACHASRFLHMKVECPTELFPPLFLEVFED
Source text: (§1) Experimental Example 1: Detection of Agonist Activities of Compounds Against THRα/β Based on Time-Resolved Fluorescence Resonance Energy Transfer (THR-FRET)
(§2) 1. Construction of THRα/β Overexpression Vectors
(§3) By visiting NCBI, the THRα/β LBD domain sequences were found. The pET21-His-GST-dLBT-THRα LBD and pET21-His-GST-dLBT-THRβLBD overexpression vectors were constructed by the fusion method, and sequenced to confirm the accuracy of the sequences.
(§4) 2. Prokaryotic Expression of Recombinant Proteins in E. coli
(§5) The THRα LBD and THRβLBD overexpression vectors confirmed by sequencing were transfected into E. coli cells BL21 (DE3), and spread on an ampicillin-resistant agar plate. Monoclones were picked out and amplified in an LB medium, and transferred into 1 L LB at a ratio of 1:100 for large-scale culture. When the OD value was at 0.8 to 1.2, 0.5 mM isopropyl-beta-D-thiogalactopyranoside (IPTG) was added, and induced overnight at 18° C. The bacteria were harvested, disrupted, and purified via the GST column and the molecular sieve to obtain two proteins His-GST-dLBT-THRα LBD and His-GST-dLBT-THRβLBD.
(§6) 3. Preparation of Compounds and Formulation of Reaction System
(§7) The proteins were taken out from a refrigerator at −80° C. The protein s with the GST-tagged THRα/p LBD domain and the Eu-labelled GST antibodies were thawed slowly on ice, and an assay buffer containing a final concentration of 5 mM dithiothreitol (DTT) was formulated.
(§8) 3.1 Preparation of Compounds
(§9) The starting concentration of the compound was 10 μM (in DMSO). The compound (100 μM in DMSO) was subjected to 3-fold isogradient dilution with DMSO to obtain a total of 11 isogradient concentrations. Subsequently, the above compounds at the isogradient concentration were further subjected to 50-fold dilution with an assay buffer containing 5 mM DTT.
(§10) 3.2 Formulation of THR-FRET Reaction System
(§11) The final concentrations of all components were calculated based on a system with a final volume of 20 µL per well. To […] of assay buffer containing 5 mM DTT, the GST-tagged THRα/β proteins, the SRC2 ([…]) polypeptide, XL665 (Cisobio, #610SAXLB), and the Eu-labeled GST antibody were added, and the final concentrations were 2 nM, 200 nM, 0.05 nM, and 7.6 nM respectively to formulate 18 μL of reaction mixture of the proteins, polypeptide, and antibody per well.
(§12) 18 μL of reaction mixture and 2 μL of diluted compound were added into an optiplate-384-well plate, and reacted at room temperature for 24 h.
(§13) The plate was read using an MD i3x multi-mode microplate reader with the excitation and emission wavelengths of 340 nm and 665 nm, respectively. The intensity of light at a wavelength of 616 nm generated by europium excited by 340 nm wavelength light from the MD i3x multi-mode microplate reader was used as the background. According to the different activation degrees of different compounds against THRα and THRβ, the intensity of the emission light at a wavelength of 665 nm generated by exciting XL665 with the exciting light at a wavelength of 616 nm was varied. The intensity ratio between these two light wavelengths (665 nm, 616 nm) was used as the activation activity of the compound against THRα or THRβ, and was normalized against the ratio in the vehicle DMSO group. The dose-response curve was fitted with four parameters using the GraphPad Prism 6.0 software, and the EC50 value was calculated.

[2] = target: T2, THRβ LBD (His-GST-dLBT-THRβLBD) (Homo sapiens, UniProt P10828); test: THR-FRET (time-resolved fluorescence resonance energy transfer) agonist activity assay, THRβ; type: biochemical; conditions: for EC50: 24 h at room temperature; for Selectivity (THRα/THRβ): ratio of EC50 THRα/THRβ
T2 construct: made in house; host or cells: E. coli BL21 (DE3)
T2 sequence (P10828 217-461 limits assumed): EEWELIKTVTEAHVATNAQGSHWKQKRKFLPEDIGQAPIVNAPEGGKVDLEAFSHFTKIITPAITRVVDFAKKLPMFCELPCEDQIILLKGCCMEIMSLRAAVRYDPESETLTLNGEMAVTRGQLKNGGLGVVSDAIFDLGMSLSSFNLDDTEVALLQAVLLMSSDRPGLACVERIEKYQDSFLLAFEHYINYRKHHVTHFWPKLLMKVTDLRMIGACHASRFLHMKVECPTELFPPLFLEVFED
Source text: as §1, §2, §3, §4, §5, §6, §7, §8, §9, §10, §11, §12, §13

[3] = target: T3, THRβ (pGAL4-THRβ-LBD) (Homo sapiens, UniProt P10828); test: Reporter gene (Dual-Glo luciferase) agonist activity assay in HEK293T cells, THRβ; type: cell-based; conditions: ratio of EC50 THRα/THRβ
T3 construct: expressed in transfected cells; host or cells: HEK293T
T3 sequence (P10828 217-461): T2 sequence (P10828 217-461 limits assumed)
Source text: Experimental Example 2: Detection of Agonist Activities of Compounds Against THRα and THRβ Based on Reporter Gene Activity Assay Method
1.1 Construction and Preparation of Plasmids pGAL4-THR-LBD and pG5-Luc
The pGAL4-THRα-LBD and pGAL4-THRβ-LBD plasmids used in the reporter gene assay system were constructed by a conventional molecular cloning method comprising the following main steps: the cDNA sequences of THRα (NM_003250) and THRβ(NM_000461) corresponding to the amino acid sequences of THRα (163-407AA) and THRβ(217-461AA) were inserted into the BamHI and NotI enzyme digestion sites of the pGAL4 vector by the PCR technique respectively to obtain the pGAL4-THRα-LBD and pGAL4-THRβ-LBD plasmids; the pG5-Luc (#E249A) and pRL-TK (#E2241) plasmids were purchased from Promega; the plasmids were transfected into the E. coli DH5a by the CaCl2 method, and after further culture and amplification, the plasmids were purified by Plasmid Extraction Kits (TIANGEN, #D107) to obtain the corresponding plasmid DNAs.
1.2 Co-Transfection of Plasmids into HEK293T Cells and Treatment with Compounds
The HEK293T cells were inoculated into a 96-well plate at a density of 1×10^4/well the day before plasmid transfection. Cell transfection was conducted according to the instructions of the transfection reagent FuGENE® HD (Promega, #E2311). The main steps were as follows: taking one well as an example here, the plasmids pGAL4-THRα-LBD or pGAL4-THRβ-LBD, pG5-Luc, and pRL-TK were added in the proportions of 20 ng, 50 ng, and 5 ng to 10 μL of Opti-MEM™ I medium (Gibco, #11058021) and mixed well; subsequently, 0.25 μL of FuGENE® HD was added, mixed well, and then left at room temperature for 5 min; afterwards, […] was added to the cell wells containing 100 μL of culture medium. After cell co-transfection for 6 h, the compound was diluted in a 3-fold gradient with dimethyl sulfoxide at the highest concentration of 1 μM. The compound was added to the cell culture medium at a total of 10 concentrations for treatment for 24 h. There were a total of two duplicate wells for each concentration. Triiodothyronine (T3) was used as the positive control.
1.3 Dual-Glo Luciferase Assay
After the cells were treated with the compound for 24 h, the cells were assayed according to the instructions of Dual-Glo® Luciferase Assay System (Promega, #E2940). The main steps were as follows: 50 μL of culture medium was aspirated from each well and discarded, and then 50 μL of Dual-Glo® Luciferase reagent was added and oscillated at room temperature for 10 min; 80 μL of lysis reaction solution was measured into a white opaque optiPlate-96-well plate, and the luminescence signal value (Firefly-Luc) of the Firefly luciferase was detected using an MD i3x multi-mode microplate reader; 40 μL of Dual-Glo® Stop & Glo® reagent was then added, and oscillated at room temperature for 10 min; the luminescence signal value (Renilla-Luc) of the Renilla luciferase was then detected using an MD i3x multi-mode microplate reader. The Firefly-Luc/Renilla-Luc ratio was used as the activation activity of the compound against THR, and was normalized against the ratio in the vehicle DMSO group; the dose-response curve was fitted with four parameters using the GraphPad Prism6.0 software, and the EC50 value was calculated.

EC50 [1] [nM] | EC50 [2] [nM] | Selectivity (THRα/THRβ) [2] | SMILES | Selectivity (THRα/THRβ) [3]
100 to 1000 | 50 to 100 | †† (10 > THRα/β > 1) | C#Cc1nn(-c2cc(Cl)c(Cn3ccc(=O)c4ccccc43)c(Cl)c2)c(=O)[nH]c1=O [Compound 40] | 
1000 to 10000 | 100 to 1000 | †† (10 > THRα/β > 1) | O=C(O)CC(=O)Nc1cc(Cl)c(Cn2ccc(=O)c3ccccc32)c(Cl)c1 [Compound 61] | 
1000 to 10000 | 100 to 1000 | †† (10 > THRα/β > 1) | N#Cc1nn(-c2cc(Cl)c(Cn3ccc(=O)c4ccccc43)c(Cl)c2)c(=O)[nH]c1=O [Compound 31] | 
100 to 1000 | 50 to 100 | †† (10 > THRα/β > 1) | O=C(O)C(=O)Nc1cc(Cl)c(Cn2ccc(=O)c3ccccc32)c(Cl)c1 [Compound 62] | 
100 to 1000 | < 50 | ††† (THRα/β ≥ 10) | O=c1ccn(Cc2c(Cl)cc(NCc3nnn[nH]3)cc2Cl)c2ccccc12 [Compound 65] | 
1000 to 10000 | 100 to 1000 | ††† (THRα/β ≥ 10) | O=C(Nc1cc(Cl)c(Cn2ccc(=O)c3ccccc32)c(Cl)c1)c1noc(=O)[nH]1 [Compound 66] | 
100 to 1000 | 100 to 1000 | †† (10 > THRα/β > 1) | O=c1ccn(Cc2c(Cl)cc(OCc3nnn[nH]3)cc2Cl)c2ccccc12 [Compound 59] | 

Continued, compound first:

SMILES | EC50 [1] [nM] | EC50 [2] [nM] | Selectivity (THRα/THRβ) [2] | Selectivity (THRα/THRβ) [3]
Cc1cccc2c1c(=O)ccn2Cc1c(Br)cc(-n2nc(C(F)F)c(=O)[nH]c2=O)cc1Br [Compound 49] | 50 to 100 | 50 to 100 | †† (10 > THRα/β > 1) | † (5 ≥ THRα/β)
O=c1[nH]c(COc2cc(Cl)c(Cn3ccc(=O)c4ccccc43)c(Cl)c2)no1 [Compound 58] | 100 to 1000 | 100 to 1000 | †† (10 > THRα/β > 1) | 
O=c1cnn(-c2cc(Br)c(Cn3ccc(=O)c4ccccc43)c(Br)c2)c(=O)[nH]1 [Compound 2] | 100 to 1000 | < 50 | †† (10 > THRα/β > 1) | † (5 ≥ THRα/β)
COC(=O)c1cc2c(=O)ccn(Cc3c(Cl)cc(-n4ncc(=O)[nH]c4=O)cc3Cl)c2cc1OC [Compound 27] |  |  |  | † (5 ≥ THRα/β)
Cc1nn(-c2cc(Br)c(Cn3ccc(=O)c4ccccc43)c(Br)c2)c(=O)[nH]c1=O [Compound 43] | 100 to 1000 | 50 to 100 | †† (10 > THRα/β > 1) | † (5 ≥ THRα/β)
O=c1[nH]c(=O)n(-c2cc(Cl)c(Cn3ccc(=O)c4ccccc43)c(Br)c2)nc1C(F)F [Compound 30] | 100 to 1000 | < 50 | †† (10 > THRα/β > 1) | †††† (THRα/β > 20)
O=c1[nH]nc(CNc2cc(Cl)c(Cn3ccc(=O)c4ccccc43)c(Cl)c2)o1 [Compound 63] | 1000 to 10000 | 100 to 1000 | †† (10 > THRα/β > 1) | 
O=c1cnn(-c2cc(Cl)c(Cn3ccc(=O)c4ccc(Cl)cc43)c(Cl)c2)c(=O)[nH]1 [Compound 12] |  |  |  | † (5 ≥ THRα/β)
O=c1[nH]c(CNc2cc(Cl)c(Cn3ccc(=O)c4ccccc43)c(Cl)c2)no1 [Compound 64] | 100 to 1000 | 50 to 100 | †† (10 > THRα/β > 1) | 
O=c1cnn(-c2cc(Cl)c(Cn3ccc(=O)c4cc(F)ccc43)c(Cl)c2)c(=O)[nH]1 [Compound 5] |  |  |  | † (5 ≥ THRα/β)
CCOC(=O)c1cn(Cc2c(Cl)cc(-n3ncc(=O)[nH]c3=O)cc2Cl)c2ccccc2c1=O [Compound 21] |  |  |  | † (5 ≥ THRα/β)
O=c1cnn(-c2cc(Cl)c(Cn3ccc(=O)c4cc(OC(F)(F)F)ccc43)c(Cl)c2)c(=O)[nH]1 [Compound 8] |  |  |  | † (5 ≥ THRα/β)
O=C(O)CNc1cc(Cl)c(Cn2ccc(=O)c3ccccc32)c(Cl)c1 [Compound 60] | 100 to 1000 | 100 to 1000 | †† (10 > THRα/β > 1) | 
O=c1cnn(-c2cc(Cl)c(Cn3ccc(=O)c4cc(Cl)ccc43)c(Cl)c2)c(=O)[nH]1 [Compound 6] |  |  |  | † (5 ≥ THRα/β)
Cn1nc(-c2cc(Cl)c(Cn3ccc(=O)c4ccccc43)c(Cl)c2)c(=O)[nH]c1=O [Compound 51] |  |  |  | † (5 ≥ THRα/β)
O=c1cnn(-c2cc(Cl)c(Cn3ccc(=O)c4cc(Br)ccc43)c(Cl)c2)c(=O)[nH]1 [Compound 7] |  |  |  | † (5 ≥ THRα/β)
